Results published in paper PMC8950173 (Pharmaceuticals, 2022).

Experiments:
[1] = biological target: T1, human recombinant HDAC1 (Homo sapiens, UniProt Q13547); experiment: Inhibition assay HDAC1 (fluorogenic substrate ZMAL); type: biochemical; conditions: 60 min preincubation at 25 °C
T1 construct: purchased BPS Bioscience Inc. 50051
Description: (§1) In vitro inhibitory activities against HDAC1−3 and HDAC6 were measured as previously published with minor modifications. […] Subsequently, 50 µL trypsin solution (0.4 mg/mL trypsin in buffer: 50 mM Tris−HCl, pH = 8.0, 100 mM NaCl) was added, followed by additional 30 min of incubation at 37 °C. […] All compounds were tested at least twice in duplicates.

[2] = biological target: T2, human recombinant HDAC2 (Homo sapiens, UniProt Q92769); experiment: Inhibition assay HDAC2 (fluorogenic substrate ZMAL); type: biochemical; conditions: 60 min preincubation at 25 °C
T2 construct: purchased BPS Bioscience Inc. 50052
Description: as §1

[3] = biological target: human recombinant HDAC3/NcoR2 (Homo sapiens, UniProt O15379); experiment: Inhibition assay HDAC3 (fluorogenic substrate ZMAL); type: biochemical; conditions: for IC50: 60 min preincubation at 25 °C; for specificity ratio (HDAC1/HDAC3): HDAC1 over HDAC3, from IC50 values
Description: as §1

[4] = biological target: T3, human recombinant HDAC6 (Homo sapiens, UniProt Q9UBN7); experiment: Inhibition assay HDAC6 (fluorogenic substrate ZMAL); type: biochemical; conditions: for IC50: 15 min preincubation at 25 °C
T3 construct: purchased BPS Bioscience Inc. 50006
T3 sequence (Q9UBN7 1-1215): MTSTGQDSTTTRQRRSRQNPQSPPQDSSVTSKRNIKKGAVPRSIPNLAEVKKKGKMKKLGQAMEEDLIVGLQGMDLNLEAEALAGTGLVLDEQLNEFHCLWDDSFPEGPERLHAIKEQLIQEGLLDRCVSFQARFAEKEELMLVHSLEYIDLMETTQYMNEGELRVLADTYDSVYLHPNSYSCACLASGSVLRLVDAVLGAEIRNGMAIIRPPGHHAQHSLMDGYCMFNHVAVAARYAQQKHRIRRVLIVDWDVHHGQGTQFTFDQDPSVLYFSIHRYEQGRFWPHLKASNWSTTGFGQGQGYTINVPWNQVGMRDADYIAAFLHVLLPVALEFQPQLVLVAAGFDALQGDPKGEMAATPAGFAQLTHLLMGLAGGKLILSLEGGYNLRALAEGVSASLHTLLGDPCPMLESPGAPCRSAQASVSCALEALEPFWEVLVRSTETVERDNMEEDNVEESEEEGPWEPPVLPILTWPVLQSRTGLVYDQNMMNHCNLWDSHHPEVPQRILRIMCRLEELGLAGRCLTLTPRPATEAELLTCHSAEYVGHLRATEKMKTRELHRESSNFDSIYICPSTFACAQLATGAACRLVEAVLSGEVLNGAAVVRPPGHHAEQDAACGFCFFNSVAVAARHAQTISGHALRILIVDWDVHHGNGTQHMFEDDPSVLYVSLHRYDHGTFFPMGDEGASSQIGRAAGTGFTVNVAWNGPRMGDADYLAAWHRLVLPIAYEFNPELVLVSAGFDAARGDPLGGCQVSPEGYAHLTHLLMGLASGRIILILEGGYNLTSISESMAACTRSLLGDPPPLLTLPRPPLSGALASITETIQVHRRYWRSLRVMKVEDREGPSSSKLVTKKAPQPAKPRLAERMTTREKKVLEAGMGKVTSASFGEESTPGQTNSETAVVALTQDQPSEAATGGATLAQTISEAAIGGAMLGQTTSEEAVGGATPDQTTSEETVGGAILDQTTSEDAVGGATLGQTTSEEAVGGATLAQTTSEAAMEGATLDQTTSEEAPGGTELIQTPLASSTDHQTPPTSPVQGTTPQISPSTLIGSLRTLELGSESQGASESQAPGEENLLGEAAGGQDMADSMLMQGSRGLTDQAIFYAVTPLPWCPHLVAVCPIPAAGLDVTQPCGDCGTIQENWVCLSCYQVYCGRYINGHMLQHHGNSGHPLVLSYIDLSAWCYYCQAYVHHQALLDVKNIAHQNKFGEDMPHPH
Description: as §1

[5] = Solubility observed in cell culture medium; type: physicochemical; conditions: 50 µM in cell culture medium supplemented with 0.5% DMSO
[6] = system: human U251-MG glioblastoma cells; experiment: MTS assay, cancer cell viability, U251-MG; type: cell-based; conditions: U-251, 72 h, mean ± SD, n = 3, read-out: Cell Viability [%] (Vehicle = 100%) U251-MG
Description: (§2) F98 cells (obtained from ATCC® Washington, DC, USA) and U251-MG cells (obtained from Drs A. Feldmann and N. Metwasi, Department of Radioimmunology, HZDR, Rossendorf, Germany) were cultivated in Dulbecco’s Modified Eagle Medium (DMEM, Gibco, Invitrogen, Dun Laoghaire, Ireland) supplemented with 10% heat inactivated fetal bovine serum (Gibco, Invitrogen, Dun Laoghaire, Ireland), and 100 U/mL penicillin and 100 µg/mL streptomycin (Gibco, Invitrogen, Dun Laoghaire, Ireland) in a humidified atmosphere in a CO2 incubator (37 °C, 5% CO2).
(§3) Proliferation of F98 and U251-MG cells was determined using a commercially available MTS assay (CellTiter 96® AQueous One Solution Cell Proliferation Assay, Promega GmbH, Walldorf, Germany). Briefly, the cells were seeded into 96-well plates at a density of 5 × 10^4 cells/well 24 h prior to the experiment at 37 °C in a humidified, 5% CO2 atmosphere. On the day of the experiment, the cell culture medium was replaced by fresh medium supplemented with either test compounds (working concentration: 50 µM; prepared by 1:200 dilution from a 10 mM stock solution in 100% DMSO with cell culture medium) or vehicle (0.5% DMSO in cell culture medium), and the cells were incubated for 72 h. Subsequently, 20 µL of the MTS solution was added per well and the plate was incubated in the CO2 incubator for another 2 h. Afterwards, the absorbance was measured at a wavelength of 490 nm using a microplate reader (Model 680 microplate reader, Bio-Rad Laboratories GmbH, Feldkirchen, Germany).

[7] = system: rat F98 glioma cells; experiment: MTS assay, cancer cell viability, F98; type: cell-based; conditions: 72 h, mean ± SD, n = 3, read-out: Cell Viability [%] (Vehicle = 100%) F98
Description: as §2, §3

T1 sequence (Q13547 whole entry): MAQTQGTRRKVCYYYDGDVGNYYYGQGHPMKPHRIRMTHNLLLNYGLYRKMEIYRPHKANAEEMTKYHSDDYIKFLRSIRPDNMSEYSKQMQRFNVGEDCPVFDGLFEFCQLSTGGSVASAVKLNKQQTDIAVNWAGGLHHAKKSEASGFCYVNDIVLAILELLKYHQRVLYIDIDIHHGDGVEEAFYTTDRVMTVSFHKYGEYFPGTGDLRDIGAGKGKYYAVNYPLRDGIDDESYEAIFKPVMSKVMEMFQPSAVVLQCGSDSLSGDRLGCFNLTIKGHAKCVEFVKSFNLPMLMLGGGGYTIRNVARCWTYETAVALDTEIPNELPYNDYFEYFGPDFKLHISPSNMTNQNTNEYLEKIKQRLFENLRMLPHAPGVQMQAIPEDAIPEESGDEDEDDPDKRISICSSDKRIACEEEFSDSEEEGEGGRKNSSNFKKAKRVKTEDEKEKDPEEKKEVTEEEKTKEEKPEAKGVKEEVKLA
T2 sequence (Q92769 whole entry): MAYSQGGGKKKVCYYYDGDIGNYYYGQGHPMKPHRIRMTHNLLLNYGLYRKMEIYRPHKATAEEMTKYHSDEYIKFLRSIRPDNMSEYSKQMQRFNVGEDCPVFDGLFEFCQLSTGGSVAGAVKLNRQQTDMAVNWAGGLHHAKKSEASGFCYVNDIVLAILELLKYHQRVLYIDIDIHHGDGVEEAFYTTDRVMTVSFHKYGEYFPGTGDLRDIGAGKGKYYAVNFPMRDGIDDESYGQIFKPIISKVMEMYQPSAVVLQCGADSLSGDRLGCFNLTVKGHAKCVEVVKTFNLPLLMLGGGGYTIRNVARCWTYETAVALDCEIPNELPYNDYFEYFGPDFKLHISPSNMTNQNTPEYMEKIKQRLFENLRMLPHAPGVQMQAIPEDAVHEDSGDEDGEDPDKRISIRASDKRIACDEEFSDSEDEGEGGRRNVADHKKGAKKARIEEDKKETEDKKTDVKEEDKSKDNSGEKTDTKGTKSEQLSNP
Chain of human recombinant HDAC3/NcoR2 (O15379 whole entry): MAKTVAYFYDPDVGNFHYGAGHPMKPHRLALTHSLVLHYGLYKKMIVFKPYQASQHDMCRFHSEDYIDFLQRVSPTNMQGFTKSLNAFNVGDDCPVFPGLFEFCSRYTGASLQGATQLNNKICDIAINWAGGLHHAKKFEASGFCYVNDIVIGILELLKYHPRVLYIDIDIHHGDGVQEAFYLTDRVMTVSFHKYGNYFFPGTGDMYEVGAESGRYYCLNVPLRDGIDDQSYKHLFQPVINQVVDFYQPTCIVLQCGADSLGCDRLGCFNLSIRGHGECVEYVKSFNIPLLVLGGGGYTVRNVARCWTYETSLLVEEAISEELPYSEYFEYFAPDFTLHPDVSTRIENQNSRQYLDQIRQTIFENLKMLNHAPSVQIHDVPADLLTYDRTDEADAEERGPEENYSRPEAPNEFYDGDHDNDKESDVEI
Chain of human recombinant HDAC3/NcoR2 (Q9Y618 395-489 partner limits assumed): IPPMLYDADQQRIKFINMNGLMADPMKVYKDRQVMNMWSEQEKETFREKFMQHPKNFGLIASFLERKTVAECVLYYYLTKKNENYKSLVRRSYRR

| IC50 [1] | IC50 [2] | IC50 [3] | specificity ratio (HDAC1/HDAC3) [3] | IC50 [4] | specificity ratio HDAC1 over HDAC6 ([4]; from IC50 values) | solubility in cell culture medium [5] | SMILES | viability at 50 µM [6] | viability at 50 µM [7] |
| --- | --- | --- | --- | --- | --- | --- | --- | --- | --- |
| 4.8 ± 0.4 nM | 64.3 ± 4.5 nM | 2300 ± 190 nM | 479 | > 10000 nM | – | – | CC(F)C(=O)NCc1ccc(C(=O)Nc2cc(-c3cccs3)ccc2N)cc1 (stereo not drawn) [BA1, N-[2-amino-5-(thiophen-2-yl)phenyl]-4-[(2-fluoropropanamido)methyl]benzamide] | – | – |
| 8.3 ± 1.4 nM | 33.5 ± 1.5 nM | > 1110 nM | – | > 10000 nM | – | – | CC(F)C(=O)Nc1ccc(C(=O)Nc2cc(-c3cccs3)ccc2N)cc1 (stereo not drawn) [BA2, N-[2-amino-5-(thiophen-2-yl)phenyl]-4-(2-fluoropropanamido)benzamide] | – | – |
| 4.8 ± 0.6 nM | 39.9 ± 3.2 nM | > 1110 nM | > 230 | > 10000 nM | > 2080 | slight precipitation | CC(F)C(=O)NCc1ccc(C(=O)Nc2cc(-c3ccsc3)ccc2N)cc1 (stereo not drawn) [BA3, N-[2-amino-5-(thiophen-3-yl)phenyl]-4-[(2-fluoropropanamido)methyl]benzamide] | – | – |
| 11.2 ± 2.4 nM | 38.1 ± 4.5 nM | > 3330 nM | – | > 10000 nM | – | – | CC(F)C(=O)Nc1ccc(C(=O)Nc2cc(-c3ccsc3)ccc2N)cc1 (stereo not drawn) [BA4, N-[2-amino-5-(thiophen-3-yl)phenyl]-4-(2-fluoropropanamido)benzamide] | – | – |
| 10.2 ± 0.4 nM | 32.2 ± 5.5 nM | 1300 ± 70 nM | – | > 10000 nM | – | – | CC(F)C(=O)NCc1ccc(C(=O)Nc2cc(-c3ccc(F)cc3)ccc2N)cc1 (stereo not drawn) [BA5, N-(4-amino-4′-fluoro-[1,1′-biphenyl]-3-yl)-4-[(2-fluoropropanamido)methyl]benzamide] | – | – |
| 14.9 ± 0.4 nM | 56.6 ± 0.6 nM | > 1110 nM | > 74 | > 10000 nM | – | – | CC(F)C(=O)Nc1ccc(C(=O)Nc2cc(-c3ccc(F)cc3)ccc2N)cc1 (stereo not drawn) [BA6, N-(4-amino-4′-fluoro-[1,1′-biphenyl]-3-yl)-4-(2-fluoropropanamido)benzamide] | – | – |
| 20.4 ± 0.3 nM | 69.1 ± 1.2 nM | 3800 ± 180 nM | – | > 10000 nM | – | – | CC(F)C(=O)NCc1ccc(C(=O)Nc2cc(-c3ccco3)ccc2N)cc1 (stereo not drawn) [BA7, N-[2-amino-5-(furan-2-yl)phenyl]-4-[(2-fluoropropanamido)methyl]benzamide] | – | – |
| 24.2 ± 2.9 nM | 82.1 ± 0.1 nM | 4200 ± 80 nM | – | > 10000 nM | – | – | CC(F)C(=O)Nc1ccc(C(=O)Nc2cc(-c3ccco3)ccc2N)cc1 (stereo not drawn) [BA8, N-[2-amino-5-(furan-2-yl)phenyl]-4-(2-fluoropropanamido)benzamide] | – | – |
| 19.8 ± 0.4 nM | 56.3 ± 0.2 nM | 2400 ± 250 nM | – | > 10000 nM | – | – | CC(F)C(=O)NCc1ccc(C(=O)Nc2cc(-c3ccoc3)ccc2N)cc1 (stereo not drawn) [BA9, N-[2-amino-5-(furan-3-yl)phenyl]-4-[(2-fluoropropanamido)methyl]benzamide] | – | – |
| 17 ± 1.2 nM | 47.7 ± 2.9 nM | 3300 ± 480 nM | – | > 10000 nM | – | – | CC(F)C(=O)Nc1ccc(C(=O)Nc2cc(-c3ccoc3)ccc2N)cc1 (stereo not drawn) [BA10, N-[2-amino-5-(furan-3-yl)phenyl]-4-(2-fluoropropanamido)benzamide] | – | – |
| – | – | – | – | – | – | – | Nc1ccccc1NC(=O)c1ccc(CNC(=O)OCc2cccnc2)cc1 [entinostat] | 55 ± 11.2% | 27.5 ± 4.4% |
| – | – | – | – | – | – | – | CC(=O)Nc1ccc(C(=O)Nc2ccccc2N)cc1 [tacedinaline] | 28.5 ± 3% | 27.1 ± 3% |
| – | – | – | – | – | – | – | O=C(CCCCCCC(=O)Nc1ccccc1)NO [vorinostat] | 36.9 ± 7.6% | 24.4 ± 7.9% |
